Several values for one entry are separate records, joined by “and”; a condition that tells them apart may be missing. Identical values can stand only once. Like-named read-outs stand apart in the source and are kept apart here.
Legend:
GSK-3α = target: T1, GSK-3α (Homo sapiens, UniProt P49840); test: CETSA in HL-60 cell extract, immunoblot; type: binding; settings: for ΔTm at 20 µM / Tm (GSK-3α): 20 µM inhibitor; for Tm difference vs DMSO, same protein: inhibitor minus DMSO; for Tm (fitted melting curve): in °C; for Tm: GSK-3α, cell extract
T1 construct: parallel detection of MAPK14, MAPKAPK2, MAPKAPK3, and GSK-3α; endogenous in cells; host or cells: HL-60 (ATCC CCL-240), living cells or cell extract
Procedure: (§1) For the differentiation of primary and secondary binding effects, CETSA experiments using cell extracts instead of living cells (cell extract test) are proposed in the literature. Therefore, we performed CETSA assays in HL-60 cell extracts under the same conditions as for living cells (Figure 1, Table 1, Supplementary Table S6).
(§2) HL-60 cells were expanded as described above for CETSA and TPP-TR to about 1.25 million cells per ml. 50 mL of the cell suspension, respectively, was transferred into 50 mL conical tubes. After centrifugation (300 rcf, 3 min, r.t.) and removing all of the supernating culture medium, the cells were washed twice with 25 mL PBS (r.t.) by gently resuspending the cells, followed by centrifugation (300 rcf, 3 min, r.t.) and the removal of the supernatant. The cells were transferred into pre-weighed 2 mL LoBind Eppendorf tubes using 1 mL PBS (r.t.), respectively, for resuspending. After centrifugation (300 rcf, 3 min, r.t.) and removing as much as possible of the supernatants, the cell wet weights were determined. The cells were stored at −80 °C after shock-freezing in liquid nitrogen.
(§3) Cell extracts were obtained by four freeze/thaw cycles as described above for CETSA and TPP-TR using 10 µL ice cold PBS supplemented with protease inhibitors per milligram of cell pellet wet weight for the initial resuspension of the pellet, followed by centrifugation (20,000 rcf, 30 min, 4 °C), and the recovery of the supernatant. After determining the protein content, the cell extracts were diluted to 1.8 mg/mL total protein concentration using ice-cold PBS supplemented with protease inhibitors and aliquots of 99 µL in PCR tube strips, and 1.1 mL in LoBind 1.5 mL Eppendorf tubes were shock-frozen in liquid nitrogen and stored at −80 °C or directly processed.
(§4) A fourth aliquot of 1.8 mg/mL HL-60 cell extract was supplemented with 2.2 µL of DMSO. […] After a brief centrifugation using a benchtop centrifuge, the temperature treatment at the ten different temperatures was performed as described in Section 4.1.1.
(§5) Additionally, the preparation of cell extracts containing the fraction of soluble, non-denatured proteins was performed as described in Section 4.1.1. for living cells, but omitting the freeze/thaw steps for cell lysis.
(§6) For each sample set comprising either ten temperature range samples or ten compound concentration range samples, the same volume of the cell extracts containing the fraction of soluble, non-denatured proteins was used for further analysis. This volume was determined using the two lowest temperature samples (36.5 and 41.2 °C) per temperature range sample set so that they contained an average of 5 µg total protein (e.g., 2.78 µL for all temperature range samples of a sample set whose two lowest temperature samples contain an average of 1.8 mg/mL protein). For the compound concentration range experiments, all samples of a set were used for averaging. The calculated volume was respectively transferred into PCR tubes of a tube strip, supplemented with SDS sample buffer (final concentrations: 25 mM dithiothreitol (DTT), 7.5% glycerol, 3% SDS, 37.5 mM Tris/HCl pH 7.0, 0.005% bromophenol blue), incubated for 10 min at r.t. and applied to SDS-PAGE under external cooling in an ice bath (MW marker: PageRuler pre-stained protein ladder (Thermo scientific, Waltham, MA, USA); NuPAGE 4–12% Bis-Tris Gels, 1.0 mm, Midi Protein Gel, 26-well (Thermo fisher scientific); ice cold MOPS SDS running buffer (50 mM MOPS, 50 mM Tris base, 0.1% SDS, 0.003% EDTA (free acid)); 50 V for 15 min, then 200 V for about 1.5 h, i.e., the rest of the run).

MAPKAPK2 = MAPKAPK2 (Homo sapiens, UniProt P49137); test: CETSA in HL-60 cell extract, immunoblot; type: binding; settings: for Tm difference vs DMSO, same protein: MAPKAPK2, inhibitor minus DMSO
Procedure: as §1, §2, §3, §4, §5, §6

[1] = read-out: ΔTm to DMSO in Cell Extract Compared to Living Cells (GSK-3α)
[2] = CETSA in cell extract (lysate), GSK3a
[3] = HL-60 cell extract, immunoblot, read-out: ΔTm to DMSO (GSK-3α)
[4] = MAPKAPK2, cell extract, immunoblot

T1 sequence (P49840 whole entry): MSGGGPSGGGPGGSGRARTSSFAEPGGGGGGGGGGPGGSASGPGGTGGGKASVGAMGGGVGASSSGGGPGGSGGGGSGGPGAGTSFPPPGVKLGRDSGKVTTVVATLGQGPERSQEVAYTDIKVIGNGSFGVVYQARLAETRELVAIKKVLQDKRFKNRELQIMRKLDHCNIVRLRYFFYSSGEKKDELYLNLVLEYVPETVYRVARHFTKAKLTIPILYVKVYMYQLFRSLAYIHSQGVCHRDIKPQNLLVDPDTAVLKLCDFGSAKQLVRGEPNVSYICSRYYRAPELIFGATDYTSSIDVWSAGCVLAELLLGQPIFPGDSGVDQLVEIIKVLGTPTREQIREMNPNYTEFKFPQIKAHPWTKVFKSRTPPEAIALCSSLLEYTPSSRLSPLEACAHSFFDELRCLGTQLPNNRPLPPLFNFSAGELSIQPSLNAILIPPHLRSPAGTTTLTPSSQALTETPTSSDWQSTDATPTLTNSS
Chain of MAPKAPK2 (P49137 whole entry): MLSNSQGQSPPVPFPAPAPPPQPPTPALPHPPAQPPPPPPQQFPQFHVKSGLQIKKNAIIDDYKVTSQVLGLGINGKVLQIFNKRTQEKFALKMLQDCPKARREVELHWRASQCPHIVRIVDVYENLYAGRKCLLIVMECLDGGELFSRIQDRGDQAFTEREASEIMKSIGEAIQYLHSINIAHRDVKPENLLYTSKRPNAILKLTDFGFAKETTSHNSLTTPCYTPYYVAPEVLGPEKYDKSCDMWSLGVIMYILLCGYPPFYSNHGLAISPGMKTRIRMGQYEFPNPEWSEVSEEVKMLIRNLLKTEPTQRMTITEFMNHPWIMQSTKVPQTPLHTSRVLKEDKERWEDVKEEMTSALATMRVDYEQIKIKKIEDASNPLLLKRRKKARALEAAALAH

Structure (SMILES) | ΔTm at 20 µM (GSK-3α; [1]) | Tm difference vs DMSO, same protein (GSK-3α; [2]) | Tm (fitted melting temperature) (GSK-3α; CETSA in cell extract (lysate), GSK3a, melting curve fit, in °C (unit assumed)) | Tm (fitted melting curve) (GSK-3α; [2]) | Tm (GSK-3α; immunoblot) | Tm (GSK-3α) (GSK-3α; HL-60 cell extract, immunoblot) | ΔTm at 20 µM (GSK-3α; [3]) | ΔTm at 20 µM (MAPKAPK2; 20 µM inhibitor, read-out: ΔTm to DMSO in Cell Extract Compared to Living Cells (MAPKAPK2)) | Tm difference vs DMSO, same protein (MAPKAPK2; CETSA in cell extract (lysate)) | ΔTm at 20 µM (MAPKAPK2; HL-60 cell extract, 20 µM inhibitor, immunoblot, read-out: ΔTm to DMSO (MAPKAPK2)) | ΔTm to DMSO in Cell Extract Compared to Living Cells (MAPKAPK2) (MAPKAPK2; 20 µM inhibitor) | Tm (fitted melting curve) (MAPKAPK2; CETSA in cell extract (lysate), MAPKAPK2, in °C) | Tm (MAPKAPK2) (MAPKAPK2; HL-60 cell extract, 20 µM inhibitor, immunoblot) | ΔTm to DMSO (MAPKAPK2) (MAPKAPK2; HL-60 cell extract, 20 µM inhibitor, immunoblot, 20 µM) | ΔTm to DMSO in cell extract compared to living cells (MAPKAPK2; MAPKAPK2, cell extract minus living cells) | Tm (MAPKAPK2; [4]) | ΔTm to DMSO (MAPKAPK2; [4])
Cc1cnc(Nc2ccc(F)cc2Cl)nc1-c1c[nH]c(C(=O)N[C@H](CO)c2cccc(Cl)c2)c1 [ERK 11e] | 1.1 °C | 1.24 | 50.2547 | 50.25 | 50.25 °C | 50.25 °C | 1.24 °C | 0.25 °C | 0.23 | 0.23 °C | – | – | – | – | – | – | –
Cn1c(NC[C@@H](N)Cc2ccccc2)nc(-c2ccncc2)c(-c2ccc3ccccc3c2)c1=O [AMG-548] | -0.05 °C | -0.76 | – | 48.26 | 48.26 °C | 48.26 °C | -0.76 °C | – | 2.96 | – | −2.22 °C | 51.06 | 51.06 °C | 3.0 °C and 2.96 °C | -2.22 °C | 51.06 °C | 2.96 °C
